Measurements: patent US20120264810A1, “COMPOSITIONS AND METHODS FOR ENHANCING CELLULAR UPTAKE AND INTRACELLULAR DELIVERY OF LIPID PARTICLES” (The University of British Columbia, priority 2009, published 2012)

Columns and labels:
Raw264.7 cells [1] = assay: Chloroquine / CQ-lipid LN formulations: LN uptake (SPDiO) and siRNA distribution (Cellomics, confocal); format: cell-based, mouse
Procedure: All lipid stocks (DSPC, PEG-s-DMG, Cholesterol, SP-DiOC18, chloroquine lipid and DLinDMA) were dissolved and maintained in 100% ethanol. Lipids were mixed together at a molar % ratio of 40:10:39.8:10:0.2 DLinDMA:PEG-s-DMG:cholesterol:DSPC:SP-DiO18 or 40:10:35.8:9:0.2 with 5% CQ-lipid or 35:10:39.8:0.2 with 5% CQ-lipid. Lipid mixture was added drop-wise to the formulation buffer (50 mM citrate, pH 4.0) to form multi lamellar vesicles (MLV). Large unilamellar vesicles (LUVs) were formed upon extrusion of MLVs through two stacked 80 nm Nuclepore polycarbonate filters using an extruder from Northern Lipids (Vancouver, BC, Canada) at ˜300 psi. In order to encapsulate siRNA, siRNA was added drop-wise to preformed vesicles and incubated at 35° C. for 30 minutes with constant mixing. Removal of ethanol and neutralization of formulation buffer were performed by dialysis in PBS for 16 hours. Distribution of size was determined by dynamic light scattering using a NICOMP 370 particle sizer (Nicomp Particle sizing Inc., Santa Barbara, Calif.). siRNA encapsulation efficiency was determined by removal of free siRNA using VivaPureD MiniH columns (Sartorius Stedim Biotech) from samples collected before and after dialysis. The encapsuted siRNA from eluants were then extracted and quantified at 260 nm. siRNA to lipid ratio was determined by measurement of cholesterol content in vesicles by using the Cholesterol E enzymatic assay from Wako Chemicals USA (Richmond, Va.).
Raw264.7 cells grown on glass coverslips were treated with 10 μg/mL Cy5-siRNA-LN/SPDiO or siRNACy3-LN/SPDiO constituted of +/−5% CQ-lipid in the presence of 35 or 40% DLinDMA. The overall uptake of LNs was monitored with SPDiO and the distribution of siRNA was monitored using either Cy5- or Cy3-labelled siRNA. Cells were fixed with 3% paraformaldehyde in PBS in the presence of Hoescht for nuclear staining for 15 minutes. Glass coverslips were mounted onto slides and analyzed by confocal microscopy (Olympus FV1000). Fluorochromes were excited at 488 nm (DiO), 594 nm (Alexa-594), 550 nm (Cy3) and at 633 nm (Cy5) and images were collected sequentially with 60× oil immersion objective lens.
Raw264.7 cells were treated with LNs consisting of 40% DLinDMA in the absence or presence of 10 or 30 μM chloroquine or formulation consisting of 35% DLinDMA with 5% CQ-lipid (˜14.7 μM chloroquine). Total lipid uptake was estimated by cellular SPDiO fluorescence. When cells were treated for 16 hours, the uptake of SPDiO was dependent on the concentration of chloroquine as well as concentration of LNs (FIG. 4A). When Raw264.7 cells were treated only with DLinDMA LNs, the intensity of SPDiO increased in respect to concentration. […] The Cy5-siRNA distribution at 16 hours was relatively more “punctate” than that at 24 hours (FIGS. 4B and C).

[2] = test system: GAPDH protein expression in Raw264.7 cells; assay: GAPDH siRNA-LN knockdown by western blotting in Raw264.7 cells; format: cell-based, mouse
Procedure: (§1) FIG. 5: Raw264.7 cells were treated for 24 hours with siRNACy3 encapsulated in DLinDMA LNs in the presence or absence of 5% CQ-lipid. A lipid label, SPDiO, was incorporated into the LN to monitor uptake. LN uptake was assessed by (A) SPDiO fluorescence and distribution of siRNA was assessed by (B) Cy3 fluorescence using the Cellomics ArrayScan VTI. (C) Raw264.7 cells were incubated with the same LN formulations as in (B) for 24 hours at 10 μg/mL siRNACy3. siRNACy3 distribution was examined by confocal microscopy. (D) GAPDH siRNA was formulated into LN particles comprising of 40% DLinDMA with 0% CQ-lipid or 40% DLinDMA with 5% CQ-lipid. Raw264.7 cells were treated with 5, 10 and 20 μg/mL of siRNA for 48 and 72 hours. GAPDH protein expression was assessed by western blotting against anti-GAPDH and anti-actin. (E) LNCaP cells were treated accordingly as in (D).
(§2) Perhaps most importantly, we wanted to determine whether the enhanced cytosolic distribution of siRNACy3 observed with the CQ-lipid correlated to enhanced gene knockdown. Glyceraldehyde 3-phosphate dehydrogenase (GAPDH) is an ubiquitously expressed cytosolic protein and therefore knockdown efficiency of encapsulated siRNA can be tested in different cell lines (Barber et al., 2005). Raw264.7 cells were treated with LN of varying concentration of GAPDH siRNA for 24, 48 and 72 hours. Total protein was isolated and analyzed for GAPDH levels by immunoblotting. […] The function of GAPDH siRNA was specific since actin expression was unaltered (FIG. 5D). To confirm the function of the CQ-lipid in the LN-siRNA-mediated gene knockdown, GAPDH silencing was also assessed in LNCaP cells (FIG. 5E).

[3] = test system: GAPDH protein expression in LNCaP cells; assay: GAPDH siRNA-LN knockdown in LNCaP cells; format: cell-based, human
Procedure: as §1, §2

HeLa cells = assay: LNP uptake in HeLa cells (SPDiO fluorescence, Cellomics / confocal); format: cell-based, human; details: for LNP uptake with cardiac glycosides: 0.05, 0.15 and 1.5 μM, 24 h
Procedure: All cell lines were seeded at 5000 to 20,000 cells/well of 96-well ViewPlate (PerkinElmer, Shelton, Conn., USA) in 100 μl of medium and were allowed to grow overnight. Fresh medium containing 5 or 10 μg/ml of siRNA encapsulated in LNP was added the next day. Small molecules were either added manually or pinned from 1000-fold stocks in DMSO using a pinning robot equipped with 0.4 mm pins (BioRobotics, Cambridge, UK). Cells were incubated for 24 h. Cells were then washed once in PBSCM (1×PBS containing […] CaCl2), fixed in 3% paraformaldehyde containing Hoescht's stain for 15 min, washed once in PBSCM and stored in 100 μl of PBSCM.
Plates were imaged using a Cellomics Arrayscan VTI HCS Reader (Thermo Scientific, Pittsburgh, Pa., USA). Images were acquired using a 20× PlanFluor objective and a XF93 filter set. Object identification and image analysis were performed using the Cellomics Compartmental Analysis algorithm. Cellular SPDiO and siRNA-Cy3 fluorescence intensities were measured for a minimum of 400 cells and the average pixel intensity was examined. For confocal microscopy, cells grown on glass coverslips were washed once in 1×PBS, fixed in 3% paraformaldehyde containing Hoechst's stain for 15 min, washed again and mounted on slides. Images were captured on an Olympus FV1000 (Olympus, Center Valley, Pa., USA) laser scanning microscope and cellular SPDiO fluorescence intensity was analyzed using ImageJ (NIH, http://rsb.info.nih.gov/ij/).

[4] = test system: GAPDH expression in HeLa cells; assay: siGAPDH-LNP knockdown by immunoblotting in HeLa cells; format: cell-based, human
Procedure: HeLa cells were plated in twelve-well plates for indicated times. They were then washed in PBS and extracted in RIPA buffer (1% NP-40 and 0.5% Deoxycholic in 1×PBS) supplemented with protease inhibitor tablets (Roche Diagnostics). Total protein quantified by the Bradford Assay was analyzed by immunoblotting using antibodies to GAPDH, β-actin (Abcam, Cambridge, Mass.) or ATP1A1 ((Millipore, Billerica, Mass.). Antigen-antibody complexes in immunoblots were detected using Millipore Immobilon Western Chemiluminescent HRP Substrate (Millipore, Billerica, Mass.).
Knockdown effect of our LNP systems in the presence or absence of ouabain was also examined (FIG. 9B). GAPDH was chosen as a target gene since it is ubiquitously expressed at high levels in all cell types. siGAPDH or negative control siScramble was encapsulated in our LNP systems and incubated with cells for 24 hrs in the presence or absence of ouabain. Cells were further incubated in plain medium for 48 hrs before protein expression was analyzed. We observed that cells incubated continuously with ouabain for longer than 24 hrs were unhealthy (data not shown). […] It is noteworthy that LNP encapsulating siGAPDH or siScramble contained 1 mol % of PEG-s-DMG. […]

[5] = target: human α1-isoform of Na+/K+-ATPase (Homo sapiens, UniProt P05023); details: cited from earlier work
[6] = target: rodent α1-isoform of Na+/K+-ATPase (Rattus norvegicus, UniProt P06685); details: cited from earlier work
Na+/K+-ATPase = details: Paula et al., 2005; cited from earlier work
Raw264.7 cells [7] = assay: Drug screen and titration: siRNACy3-LN uptake and punctate distribution (Cellomics ArrayScan); format: cell-based, mouse
Procedure: (§3) Cells were fixed with 3% paraformaldehyde in PBS in the presence of Hoescht for 15 minutes. Cells were rinsed and stored in PBS supplemented with calcium chloride and magnesium sulfate. Plates were scanned and analyzed with the Cellomics ArrayScan VTI.
as §3

[8] = 30 μM free chloroquine, or 35% DLinDMA LNs with 5% CQ-lipid, 16 hours

CCCCC/C=C\C/C=C\CCCCCCCCOCC(CNCCCCNc1ccnc2cc(Cl)ccc12)OCCCCCCCC/C=C\C/C=C\CCCCC (stereo not shown) [CQ-lipid]
Cy5-siRNA punctate levels (Raw264.7 cells [1]; [8]): significant reduction
intracellular DiO accumulation (LN uptake) (Raw264.7 cells [1]; 5% CQ-lipid:35% DLinDMA LN, highest dose, versus 0% CQ-lipid:40% DLinDMA): substantially reduced intracellular DiO accumulation
siRNACy3 punctate signal (Raw264.7 cells [1]; 40% DLinDMA LNs with 5% CQ-lipid, 24 hours): lowered punctate signal
uptake of LN particles (SPDiO fluorescence) (Raw264.7 cells [1]; 40% DLinDMA LNs with versus without 5% CQ-lipid, 24 hours): comparable intracellular SPDiO fluorescence
GAPDH protein expression ([2]; 20 μg/mL GAPDH siRNA in LN containing 5% CQ-lipid, 48 hours): decreased GAPDH protein expression
gene knockdown occurred earlier than with LN without CQ-lipid ([2]; 20 μg/ml siRNA in LN containing the CQ-lipid): 24 h
GAPDH knockdown ([2]; 24 hours): no knockdown
knockdown of GAPDH ([2]; 72 hours): more pronounced
knockdown of GAPDH ([3]; LN containing 5% CQ-lipid, 72 hours): More pronounced knockdown effect
knockdown of GAPDH ([3]; all concentrations of LN containing 5% CQ-lipid, 48 hours): Enhanced knockdown of GAPDH

C[C@@H]1O[C@@H](O[C@H]2C[C@@H](O)[C@]3(CO)[C@H]4[C@H](O)C[C@]5(C)[C@@H](C6=CC(=O)OC6)CC[C@]5(O)[C@@H]4CC[C@]3(O)C2)[C@H](O)[C@H](O)[C@H]1O [ouabain]
GAPDH knockdown with ouabain ([3]; data not shown): enhanced GAPDH knockdown
cellular SPDiO fluorescence (LNP content) relative to untreated cells (HeLa cells; 30 nM ouabain, 24 hrs, confocal quantification): 2.5 times
cell health on continuous incubation ([4]; incubated continuously with ouabain for longer than 24 hrs (data not shown)): unhealthy
Expression of GAPDH ([4]; siGAPDH-LNP 10 ug/ml with 30 nM ouabain 24 h, then 48 hrs fresh medium): substantially reduced
sensitivity to ouabain [5]: highly sensitive
sensitivity to ouabain, less than human α1-isoform [6]: 1000 fold

C[C@@H]1O[C@@H](O[C@@H]2C=C3CCC4C(CC[C@]5(C)[C@@H](c6ccc(=O)oc6)CC[C@]45O)[C@@]3(C)CC2)[C@H](O)[C@H](O)[C@H]1O (stereo partly shown) [Proscillaridin A]
LNP uptake with cardiac glycosides (HeLa cells): required the least amount to cause an increased LNP uptake
relative binding affinity among the 9 cardiac glycosides (Na+/K+-ATPase): strongest binder

CCN(CC)CCCC(C)Nc1ccnc2cc(Cl)ccc12 (stereo not shown) [Chloroquine]
Normalized Punctate Distribution (Raw264.7 cells [7]; 10 μg/mL siRNACy3 in DLinDMA LN, ~10 μM drug, 24 h, normalized to absence of drug): 0.10
Normalized siRNA Uptake (Raw264.7 cells [7]; 10 μg/mL siRNACy3 in DLinDMA LN, ~10 μM drug, 24 h, total Cy3 intensity normalized to absence of drug): 0.34
punctate / cytosolic distribution of siRNACy3 in titration study (Raw264.7 cells [7]; drug 0-30 μM, 10 μg/mL siRNACy3-LN): significant loss of punctate distribution of siRNACy3 at 10 μM
siRNA showing punctate distribution (Raw264.7 cells [1]; 10 μM chloroquine, 24 hours (without chloroquine maximum 25-30%)): ~10%
uptake of LNs (SPDiO fluorescence) (Raw264.7 cells [1]; 10 μM free chloroquine, 40% DLinDMA LNs, 16 hours): no significant difference
Cy5-siRNA punctate levels (Raw264.7 cells [1]; 10 μM free chloroquine, 16 hours): largely indifferent
Cy5-siRNA punctate levels (Raw264.7 cells [1]; [8]): significant reduction

C[C@H]1O[C@@H](O[C@H]2CC[C@]3(C=O)[C@H]4CC[C@]5(C)[C@@H](C6=CC(=O)OC6)CC[C@]5(O)[C@@H]4CC[C@]3(O)C2)C[C@H](O)[C@@H]1O [Helveticoside]
LNP uptake with cardiac glycosides (HeLa cells): enhanced LNP uptake at a higher concentration
presence of LNs in cells by confocal microscopy (HeLa cells; treated for 24 hrs): substantial amount of LNs
relative binding affinity among the 9 cardiac glycosides (Na+/K+-ATPase): weakest binder
